Measured values from US11292807B2 (OCEANS LTD., priority 2015, dated 2022).
Like-named read-outs stand apart in the source and are kept apart here.

What was measured:
[1] = test system: SKOV3 (ovarian adenocarcinoma); test: CIMA assay, cell viability, SKOV3; details: for Fold change in viability AVG: SKOV
[2] = test system: THP-1 (acute monocytic leukemia); test: CIMA assay, cell viability, THP-1
[3] = test system: MDA-MB; test: cells; details: Homo sapiens, read-out: Average cell viability, MDA-MB
[4] = test system: PC3; test: CIMA assay, cell viability, PC3
[5] = test system: CCD1079SK (fibroblast, noncancerous but proliferating); test: CIMA assay, cell viability, CCD1079SK; details: CCD
[6] = CIMA assay, cell viability, CCD1079SK; details: human, Average cell viability, CCD
[7] = test system: A549 (lung carcinoma); test: CIMA assay (colorimetric indicator of metabolic activity), cell viability, A549; details: for Average cell viability: unit assumed
[8] = test system: MDA-MB; details: for Fold change in viability AVG / MDA-MB AVG: MDA-MB; for Average cell viability: human, 72 h
[9] = test system: PC3; details: human, 72 h, 1 ug/mL
[10] = test system: SKOV3 (ovarian adenocarcinoma); details: human, 72 h
[11] = 10 ug/mL, listed as 169-14-15-4
[12] = 10 ug/mL, listed as 174-13-14-3
[13] = 50 ug/mL, listed as 169-14-15-4
[14] = 50 ug/mL, listed as 174-13-14-3
[15] = 100 ug/mL, listed as 169-14-15-4
[16] = 100 ug/mL, listed as 174-13-14-3
[17] = THP-1, 1 ug/mL, listed as 174-13-14-3
[18] = THP-1, 10 ug/mL, listed as 174-13-14-3
[19] = THP-1, 50 ug/mL, listed as 174-13-14-3
[20] = THP-1, 100 ug/mL, listed as 174-13-14-3
[21] = A549, 1 ug/mL, listed as 174-13-14-3
[22] = A549, 10 ug/mL, listed as 169-14-15-4
[23] = A549, 10 ug/mL, listed as 174-13-14-3
[24] = A549, 50 ug/mL, listed as 169-14-15-4
[25] = A549, 50 ug/mL, listed as 174-13-14-3
[26] = A549, 100 ug/mL, listed as 169-14-15-4
[27] = A549, 100 ug/mL, listed as 174-13-14-3

CC/C=C\C/C=C\C/C=C\C/C=C\C/C=C\CCCC(=O)OCC(COC1OC(CO)C(O)C(O)C1O)OC(=O)CCCCCCCCCCCCCCC (stereo not shown) [Compound 2, MGDG C20:5/C16:0]
viability at 50 µg/mL ([1]; Homo sapiens, SK-OV-3, read-out: Average cell viability, SKOV, 50 ug/mL): 67% | Fold change in viability AVG ([1]; 1 ug/mL, listed as 169-14-15-4): 1.16 | Fold change in viability AVG ([1]; 1 ug/mL, listed as 174-13-14-3): 0.89 | Fold change in viability AVG [1, 11]: 1.02 | Fold change in viability AVG [1, 12]: 0.72 | Fold change in viability AVG [1, 13]: 0.72 | Fold change in viability AVG [1, 14]: 0.67 | Fold change in viability AVG [1, 15]: 0.48 | Fold change in viability AVG [1, 16]: 0.19 | viability at 1 µg/mL ([2]; Homo sapiens, THP-1, read-out: Average cell viability, THP-1, 1 ug/mL): 102% | viability at 10 µg/mL ([2]; Homo sapiens, THP-1, read-out: Average cell viability, THP-1, 10 ug/mL): 101% | viability at 50 µg/mL ([2]; Homo sapiens, THP-1, read-out: Average cell viability, THP-1, 50 ug/mL): 27% | viability at 100 µg/mL ([2]; Homo sapiens, THP-1, read-out: Average cell viability, THP-1, 100 ug/mL): 17% | Fold change in viability AVG ([2]; THP-1, 1 ug/mL, listed as 169-14-15-4): 1.16 | Average cell viability [2, 17]: 91% | Fold change in viability AVG [2, 17]: 1.03 | Fold change in viability AVG ([2]; THP-1, 10 ug/mL, listed as 169-14-15-4): 1.14 | Average cell viability [2, 18]: 88% | Fold change in viability AVG [2, 18]: 1.00 | Fold change in viability AVG ([2]; THP-1, 50 ug/mL, listed as 169-14-15-4): 0.31 | Average cell viability [2, 19]: 21% | Fold change in viability AVG [2, 19]: 0.24 | Fold change in viability AVG ([2]; THP-1, 100 ug/mL, listed as 169-14-15-4): 0.19 | Average cell viability [2, 20]: 21% | Fold change in viability AVG [2, 20]: 0.23 | THP-1 AVG ([2]; THP-1, sample at 1 ug/mL, listed as 169-14-15-4): 1.16 | THP-1 AVG ([2]; THP-1, sample at 1 ug/mL, listed as 174-13-14-3): 1.03 | THP-1 AVG ([2]; THP-1, sample at 10 ug/mL, listed as 169-14-15-4): 1.14 | THP-1 AVG ([2]; THP-1, sample at 10 ug/mL, listed as 174-13-14-3): 1.00 | THP-1 AVG ([2]; THP-1, sample at 50 ug/mL, listed as 169-14-15-4): 0.31 | THP-1 AVG ([2]; THP-1, sample at 50 ug/mL, listed as 174-13-14-3): 0.24 | THP-1 AVG ([2]; THP-1, sample at 100 ug/mL, listed as 169-14-15-4): 0.19 | THP-1 AVG ([2]; THP-1, sample at 100 ug/mL, listed as 174-13-14-3): 0.23 | viability at 1 µg/mL ([3]; 1 ug/mL): 100% | viability at 10 µg/mL ([3]; 10 ug/mL): 101% | viability at 100 µg/mL ([3]; 100 ug/mL): 22% | viability at 1 µg/mL ([4]; Homo sapiens, PC-3, read-out: Average cell viability, PC3, 1 ug/mL): 107% | Fold change in viability AVG ([4]; PC3, 1 ug/mL, listed as 169-14-15-4): 1.11 | Fold change in viability AVG ([4]; PC3, 1 ug/mL, listed as 174-13-14-3): 1.00 | Fold change in viability AVG ([4]; PC3, 10 ug/mL, listed as 169-14-15-4): 0.93 | Fold change in viability AVG ([4]; PC3, 10 ug/mL, listed as 174-13-14-3): 0.71 | Fold change in viability AVG ([4]; PC3, 50 ug/mL, listed as 169-14-15-4): 0.51 | Fold change in viability AVG ([4]; PC3, 50 ug/mL, listed as 174-13-14-3): 0.05 | Fold change in viability AVG ([4]; PC3, 100 ug/mL, listed as 169-14-15-4): 0.15 | Fold change in viability AVG ([4]; PC3, 100 ug/mL, listed as 174-13-14-3): 0.05 | PC3 AVG ([4]; PC3, sample at 1 ug/mL, listed as 169-14-15-4): 1.11 | PC3 AVG ([4]; PC3, sample at 1 ug/mL, listed as 174-13-14-3): 1.00 | PC3 AVG ([4]; PC3, sample at 10 ug/mL, listed as 169-14-15-4): 0.93 | PC3 AVG ([4]; PC3, sample at 10 ug/mL, listed as 174-13-14-3): 0.71 | PC3 AVG ([4]; PC3, sample at 50 ug/mL, listed as 169-14-15-4): 0.51 | PC3 AVG ([4]; PC3, sample at 50 ug/mL, listed as 174-13-14-3): 0.05 | PC3 AVG ([4]; PC3, sample at 100 ug/mL, listed as 169-14-15-4): 0.15 | PC3 AVG ([4]; PC3, sample at 100 ug/mL, listed as 174-13-14-3): 0.05 | Fold change in viability AVG ([5]; 1 ug/mL, listed as 169-14-15-4): 1.18 | Average cell viability ([5]; 1 ug/mL, listed as 174-13-14-3): 101% | Fold change in viability AVG ([5]; 1 ug/mL, listed as 174-13-14-3): 1.11 | Fold change in viability AVG [5, 11]: 1.08 | Average cell viability [5, 12]: 89% | Fold change in viability AVG [5, 12]: 0.98 | Fold change in viability AVG [5, 13]: 0.36 | Average cell viability [5, 14]: 20% | Fold change in viability AVG [5, 14]: 0.22 | Fold change in viability AVG [5, 15]: 0.14 | Average cell viability [5, 16]: 14% | Fold change in viability AVG [5, 16]: 0.15 | viability at 72 h, 1 ug/mL ([6]; CCD1079SK fibroblast cells (noncancerous, proliferating), 1 ug/mL): 107% | viability at 72 h, 10 ug/mL ([6]; CCD1079SK fibroblasts (noncancerous, proliferating), 10 ug/mL): 99% | viability at 72 h, 50 ug/mL ([6]; CCD1079SK fibroblasts (noncancerous, proliferating), 50 ug/mL): 32% | viability at 72 h, 100 ug/mL ([6]; CCD1079SK fibroblasts (noncancerous, proliferating), 100 ug/mL): 13% | Fold change in viability AVG ([7]; A549, 1 ug/mL, listed as 169-14-15-4): 1.19 | Fold change in viability AVG [7, 21]: 1.12 | Average cell viability [7, 21]: 96% | Fold change in viability AVG [7, 22]: 1.14 | Average cell viability [7, 22]: 98% | Fold change in viability AVG [7, 23]: 0.60 | Average cell viability [7, 23]: 52% | Fold change in viability AVG [7, 24]: 0.98 | Average cell viability [7, 24]: 84% | Fold change in viability AVG [7, 25]: 0.60 | Average cell viability [7, 25]: 51% | Fold change in viability AVG [7, 26]: 0.74 | Average cell viability [7, 26]: 64% | Fold change in viability AVG [7, 27]: 0.41 | Average cell viability [7, 27]: 35% | A549 AVG ([7]; A549, sample at 1 ug/mL, listed as 169-14-15-4): 1.19 | A549 AVG ([7]; A549, sample at 1 ug/mL, listed as 174-13-14-3): 1.12 | A549 AVG ([7]; A549, sample at 10 ug/mL, listed as 169-14-15-4): 1.14 | A549 AVG ([7]; A549, sample at 10 ug/mL, listed as 174-13-14-3): 0.60 | A549 AVG ([7]; A549, sample at 50 ug/mL, listed as 169-14-15-4): 0.98 | A549 AVG ([7]; A549, sample at 50 ug/mL, listed as 174-13-14-3): 0.60 | A549 AVG ([7]; A549, sample at 100 ug/mL, listed as 169-14-15-4): 0.74 | A549 AVG ([7]; A549, sample at 100 ug/mL, listed as 174-13-14-3): 0.41 | viability at 1 µg/mL ([7]; Homo sapiens, A549, read-out: Average cell viability, A549, 1 ug/mL): 102% | Fold change in viability AVG ([8]; 1 ug/mL, listed as 169-14-15-4): 1.09 | Fold change in viability AVG ([8]; 1 ug/mL, listed as 174-13-14-3): 1.11 | Fold change in viability AVG [8, 11]: 1.09 | Fold change in viability AVG [8, 12]: 0.90 | Fold change in viability AVG [8, 13]: 0.49 | Fold change in viability AVG [8, 14]: 0.23 | Fold change in viability AVG [8, 15]: 0.24 | Fold change in viability AVG [8, 16]: 0.22 | MDA-MB AVG ([8]; sample at 1 ug/mL, listed as 169-14-15-4): 1.09 | MDA-MB AVG ([8]; sample at 1 ug/mL, listed as 174-13-14-3): 1.11 | MDA-MB AVG ([8]; sample at 10 ug/mL, listed as 169-14-15-4): 1.09 | MDA-MB AVG ([8]; sample at 10 ug/mL, listed as 174-13-14-3): 0.90 | MDA-MB AVG ([8]; sample at 50 ug/mL, listed as 169-14-15-4): 0.49 | MDA-MB AVG ([8]; sample at 50 ug/mL, listed as 174-13-14-3): 0.23 | MDA-MB AVG ([8]; sample at 100 ug/mL, listed as 169-14-15-4): 0.24 | MDA-MB AVG ([8]; sample at 100 ug/mL, listed as 174-13-14-3): 0.22 | Average cell viability ([8]; 1 ug/mL): 102% | Average cell viability ([8]; 10 ug/mL): 83% | Average cell viability ([8]; 100 ug/mL): 20% | Average cell viability [9]: 97% | Average cell viability ([10]; 10 ug/mL): 94% | Average cell viability ([10]; 50 ug/mL): 62%
